The source of these data is US20180303810A1, “Nimodipine Water-Soluble Derivative, And Preparation Method And Use Thereof” (Guangzhou Henovcom Bioscience Co., Ltd., priority 2015, published 2018).

In brackets after ≈: the same amount, converted by molar mass. Like-named read-outs stand apart in the source and are kept apart here. Some results are limits rather than exact numbers.

The nature of one data set: Solubility in water. The data set is classed as physicochemical. Particulars: pure water, thermodynamic from solid. On the procedure:
The compound sample prepared according to the above examples was accurately weighed in an appropriate amount, and pure water was added dropwise with a microsyringe while shaking until the solution became clear. The amounts of the sample and pure water were recorded and converted into mg/mL, as the solubility of the sample. The result was shown in the following table, and the original drug, i.e. Nimodipine, was used as a control.

Data set [1] can be described thus: Release rate into plasma (conversion into Nimodipine). The data set is classed as in vitro ADME. Particulars: rat, rat anticoagulated plasma, 37° C., HPLC. How it is done:
A portion of compound 6 was throughly mixed with rat anticoagulated plasma and incubated at 37° C. The drug was extracted with acetonitrile at different time points for HPLC analysis.
The compound sample prepared according to the above examples was dissolved in brine in an appropriate amount to formulate into a stock solution between 0.3 and 0.4 mg/mL. 20 μL of stock solution was added into the rat anticoagulated plasma previously incubated at 37° C. for 2 mins, which were throughly mixed, and incubated at 37° C. 100 μL of samples were taken at different time points, and an equal amount of acetonitrile was added to precipitate proteins, then centrifugated and the supernatant was sampled for HPLC analysis.

Setting [2] is: water at room temperature, read-out: solubility in water.
The mark [3] stands for this setting: read-out: half-life for converting compound into Nimodipine in blood (converted).
[4] abbreviates: read-out: release rate into plasma t1/2.

Regarding `COCCOC(=O)C1=C(C)N(C(=O)OCOC(=O)/C=C/C(=O)O)C(C)=C(C(=O)OC(C)C)C1c1cccc([N+](=O)[O-])c1` (centres unmarked) [Compound 6], the results for the solubility in “Solubility in water” (read-out: solubility) and in “Solubility in water” (setting [2]) were greater than 50 mg/mL and 120 mg/mL (≈ 203 mM), respectively. Moreover, the half-life in data set [1] (setting [3]) and in data set [1] (setting [4]) was roughly 1.5 h in each case.
For the compound `COCCOC(=O)C1=C(C)N(C(=O)OCOP(=O)(O)O)C(C)=C(C(=O)OC(C)C)C1c1cccc([N+](=O)[O-])c1` (centres unmarked) [Compound 8], the solubility in the data set “Solubility in water” (read-out: solubility) is greater than 50 mg/mL; in the data set “Solubility in water” (setting [2]) it was 105 mg/mL (≈ 183 mM). Further, the half-life is roughly 1.5 h in data set [1] (setting [3]) and less than 1.5 h in data set [1] (setting [4]).
As for `COCCOC(=O)C1=C(C)N(C(=O)OCOC(=O)[C@@H](N)CCCCN)C(C)=C(C(=O)OC(C)C)C1c1cccc([N+](=O)[O-])c1` (some centres unmarked) [Compound 9], the solubility in “Solubility in water” (read-out: solubility) was greater than 50 mg/mL; in the data set “Solubility in water” (setting [2]), 230 mg/mL (≈ 371 mM). The half-life in data set [1] (setting [3]) and in data set [1] (setting [4]) was roughly 2.5 h in each case.
With `COCCOC(=O)C1=C(C)N(COP(=O)(O)O)C(C)=C(C(=O)OC(C)C)C1c1cccc([N+](=O)[O-])c1` (centres unmarked) [Compound 12], the values for the solubility in the data set “Solubility in water” (read-out: solubility) and in “Solubility in water” (setting [2]) were greater than 50 mg/mL and 80 mg/mL (≈ 151 mM), respectively. In addition, the half-life in data set [1] (setting [3]) and in data set [1] (setting [4]) was less than 0.5 h each time.
Turning to `CNCC(=O)OCOC(=O)N1C(C)=C(C(=O)OCCOC)C(c2cccc([N+](=O)[O-])c2)C(C(=O)OC(C)C)=C1C.Cl` (centres unmarked) [Compound 16], the solubility in “Solubility in water” (read-out: solubility) was greater than 50 mg/mL. Further, in data set [1] (setting [4]), the half-life was less than 0.5 h.
As to `COCCOC(=O)C1=C(C)N(C(=O)OCOC(=O)[C@H](C)N)C(C)=C(C(=O)OC(C)C)C1c1cccc([N+](=O)[O-])c1.Cl` (some centres unmarked) [Compound 18], in the data set “Solubility in water” (read-out: solubility), the solubility was greater than 50 mg/mL. Moreover, the half-life in data set [1] (setting [4]) is less than 0.5 h.
On to `COCCOC(=O)C1=C(C)N(C(=O)OCOC(=O)[C@@H](N)CC(C)C)C(C)=C(C(=O)OC(C)C)C1c1cccc([N+](=O)[O-])c1.Cl` (some centres unmarked) [Compound 20], for which the solubility in “Solubility in water” (read-out: solubility) is greater than 50 mg/mL. Further, the half-life in data set [1] (setting [4]) was less than 0.5 h.
For `COCCOC(=O)C1=C(C)N(C(=O)OC(C)OC(=O)[C@H](C)N)C(C)=C(C(=O)OC(C)C)C1c1cccc([N+](=O)[O-])c1.Cl` (some centres unmarked) [Compound 23], in “Solubility in water” (read-out: solubility), the solubility is greater than 50 mg/mL. The half-life in data set [1] (setting [4]) was less than 0.5 h.
As to `COCCOC(=O)C1=C(C)N(C(=O)OC(C)OC(=O)/C=C/C(=O)[O-])C(C)=C(C(=O)OC(C)C)C1c1cccc([N+](=O)[O-])c1.[K+]` (centres unmarked) [Compound 24], the solubility in “Solubility in water” (read-out: solubility) was greater than 50 mg/mL. For the same compound, in data set [1] (setting [4]), the half-life was less than 1 h.
Take `COCCOC(=O)C1=C(C)N(C(=O)OCOC(=O)CCN)C(C)=C(C(=O)OC(C)C)C1c1cccc([N+](=O)[O-])c1.Cl` (centres unmarked) [Compound 26]: in the data set “Solubility in water” (read-out: solubility), the solubility was greater than 50 mg/mL. In addition, the half-life in data set [1] (setting [4]) was less than 0.5 h.
`COCCOC(=O)C1=C(C)N(C(=O)OC(C)OC(=O)CCCN)C(C)=C(C(=O)OC(C)C)C1c1cccc([N+](=O)[O-])c1.Cl` (centres unmarked) [Compound 28]: the solubility in the data set “Solubility in water” (read-out: solubility) was greater than 50 mg/mL. For the same compound, the half-life in data set [1] (setting [4]) is less than 0.5 h.
`COCCOC(=O)C1=C(C)N(C(=O)OCOC(=O)CCCN)C(C)=C(C(=O)OC(C)C)C1c1cccc([N+](=O)[O-])c1.Cl` (centres unmarked) [Compound 30]: the solubility in the data set “Solubility in water” (read-out: solubility) was greater than 50 mg/mL. The half-life in data set [1] (setting [4]) was less than 0.5 h.
Consider `COCCOC(=O)C1=C(C)N(C(=O)OCOC(=O)C2CCNCC2)C(C)=C(C(=O)OC(C)C)C1c1cccc([N+](=O)[O-])c1.Cl` (centres unmarked) [Compound 32], for which, in “Solubility in water” (read-out: solubility), the solubility is greater than 50 mg/mL. For the same compound, in data set [1] (setting [4]), the half-life was less than 0.5 h.
With `COCCOC(=O)C1=C(C)N(C(=O)OCOC(=O)CC2CCNCC2)C(C)=C(C(=O)OC(C)C)C1c1cccc([N+](=O)[O-])c1.Cl` (centres unmarked) [Compound 38], the solubility in the data set “Solubility in water” (read-out: solubility) is greater than 50 mg/mL. Moreover, the half-life in data set [1] (setting [4]) is less than 0.5 h.
Regarding `COCCOC(=O)C1=C(C)N(C(=O)OCOC(=O)/C=C/C(=O)[O-])C(C)=C(C(=O)OC(C)C)C1c1cccc([N+](=O)[O-])c1.[Na+]` (centres unmarked) [Compound 39], the solubility in the data set “Solubility in water” (read-out: solubility) is greater than 50 mg/mL. Further, the half-life in data set [1] (setting [4]) is less than 1 h.
As for `COCCOC(=O)C1=C(C)N(C(=O)OCOC(=O)CC[C@H](N)C(N)=O)C(C)=C(C(=O)OC(C)C)C1c1cccc([N+](=O)[O-])c1.Cl` (some centres unmarked) [Compound 41], the solubility in the data set “Solubility in water” (read-out: solubility) is greater than 50 mg/mL. Further, the half-life in data set [1] (setting [4]) was less than 0.5 h.
Turning to `COCCOC(=O)C1=C(C)NC(C)=C(C(=O)OC(C)C)C1c1cccc([N+](=O)[O-])c1` (centres unmarked) [Nimodipine], the solubility in “Solubility in water” (read-out: solubility) came to 0.003 mg/mL (≈ 0.00717 mM).

As usually defined, the solubility is the dissolved amount per volume that the medium holds.
